Reference: ChEMBL document CHEMBL5370584, “Reprogramming Energy Metabolism with Synthesized PDK Inhibitors Based on Dichloroacetate Derivatives and Targeted Delivery Systems for Enhanced Cancer Therapy” (J Med Chem, 2023)
Activity calls are given as the source filed them. The rule behind the calls is not given here.

Assays:
[1] = tested on: MOLM-13; assay: Antiproliferative activity against human MOLM-13 cells assessed as inhibition of cell growth incubated for 24 hrs by MTT assay; type: functional, cell-based; conditions: MOLM-13, 24 h
[2] = tested on: NB-4; assay: Antiproliferative activity against human NB4 cells assessed as inhibition of cell growth incubated for 24 hrs by MTT assay; type: functional, cell-based; conditions: NB-4, 24 h
[3] = tested on: 4T1; assay: Antiproliferative activity against mouse 4T1 cells assessed as inhibition of cell growth incubated for 24 hrs by MTT assay; type: functional, cell-based; conditions: 4T1, 24 h
[4] = tested on: MCF7; assay: Antiproliferative activity against human MCF7 cells assessed as inhibition of cell growth incubated for 24 hrs by MTT assay; type: functional, cell-based; conditions: MCF7, 24 h
[5] = tested on: HeLa; assay: Antiproliferative activity against human HeLa cells assessed as inhibition of cell growth incubated for 24 hrs by MTT assay; type: functional, cell-based
[6] = (§1) Antiproliferative activity against African green monkey COS7 cells assessed as inhibition of cell growth incubated for 24 hrs by MTT assay; type: toxicity, cell-based, Chlorocebus aethiops, COS-7; conditions: African green monkey (Chlorocebus aethiops), COS-7 cells
[7] = molecular target: [Pyruvate dehydrogenase (acetyl-transferring)] kinase isozyme 1, mitochondrial (Homo sapiens, UniProt Q15118); assay: Inhibition of PDK1 (unknown origin) incubated for 30 mins in presence of ATP by kinase glo luminescent kinase assay
Chain of [Pyruvate dehydrogenase (acetyl-transferring)] kinase isozyme 1, mitochondrial (Q15118 whole entry): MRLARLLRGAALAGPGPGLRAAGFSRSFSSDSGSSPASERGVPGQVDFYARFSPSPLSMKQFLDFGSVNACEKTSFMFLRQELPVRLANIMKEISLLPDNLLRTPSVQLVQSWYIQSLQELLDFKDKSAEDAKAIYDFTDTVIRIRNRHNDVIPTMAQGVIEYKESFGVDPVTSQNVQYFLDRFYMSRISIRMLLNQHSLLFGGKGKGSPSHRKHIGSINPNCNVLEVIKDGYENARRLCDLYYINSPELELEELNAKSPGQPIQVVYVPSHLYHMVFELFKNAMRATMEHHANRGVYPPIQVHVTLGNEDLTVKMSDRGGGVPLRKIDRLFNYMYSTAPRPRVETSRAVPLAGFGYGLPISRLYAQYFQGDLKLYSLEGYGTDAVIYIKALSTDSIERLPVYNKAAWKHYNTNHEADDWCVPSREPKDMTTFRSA

[8] = Inhibition of PDK (unknown origin) incubated for 10 mins in presence of ATP; set-up: species or system Homo sapiens
[9] = tested on: COS-7; assay: as §1; type: toxicity, cell-based, Chlorocebus aethiops; conditions: cos-7
[10] = tested on: Prostate cell; assay: Antiproliferative activity against human prostate cell assessed as inhibition of cell viability measured after 72 hrs by MTT assay; type: functional, cell-based
[11] = molecular target: [Pyruvate dehydrogenase (acetyl-transferring)] kinase isozyme 1, mitochondrial (Mus musculus) (UniProt Q8BFP9); assay: Inhibition of PDK1 transcription in mouse 4T1 cells at 4 uM incubated for 24 hrs by qPCR analysis; type: cell-based
Chain of [Pyruvate dehydrogenase (acetyl-transferring)] kinase isozyme 1, mitochondrial (Mus musculus) (Q8BFP9 whole entry): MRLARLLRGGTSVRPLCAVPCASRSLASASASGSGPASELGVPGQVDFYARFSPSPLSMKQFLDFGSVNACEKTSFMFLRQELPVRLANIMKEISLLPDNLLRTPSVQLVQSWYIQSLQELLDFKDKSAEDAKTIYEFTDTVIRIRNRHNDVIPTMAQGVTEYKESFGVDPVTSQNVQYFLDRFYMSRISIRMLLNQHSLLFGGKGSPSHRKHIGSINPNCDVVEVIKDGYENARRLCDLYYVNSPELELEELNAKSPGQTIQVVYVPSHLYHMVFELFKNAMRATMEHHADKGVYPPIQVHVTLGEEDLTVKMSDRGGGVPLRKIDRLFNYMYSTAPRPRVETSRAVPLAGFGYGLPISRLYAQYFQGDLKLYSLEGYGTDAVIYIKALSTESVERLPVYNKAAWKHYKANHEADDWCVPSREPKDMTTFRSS

[12] = molecular target: [Pyruvate dehydrogenase (acetyl-transferring)] kinase isozyme 2, mitochondrial (Mus musculus) (UniProt Q9JK42); assay: Inhibition of PDK2 transcription in mouse 4T1 cells at 4 uM incubated for 24 hrs by qPCR analysis; type: cell-based
[13] = molecular target: [Pyruvate dehydrogenase (acetyl-transferring)] kinase isozyme 3, mitochondrial (Mus musculus) (UniProt Q922H2); assay: Inhibition of PDK3 transcription in mouse 4T1 cells at 4 uM incubated for 24 hrs by qPCR analysis; type: cell-based
Chain of [Pyruvate dehydrogenase (acetyl-transferring)] kinase isozyme 3, mitochondrial (Mus musculus) (Q922H2 whole entry): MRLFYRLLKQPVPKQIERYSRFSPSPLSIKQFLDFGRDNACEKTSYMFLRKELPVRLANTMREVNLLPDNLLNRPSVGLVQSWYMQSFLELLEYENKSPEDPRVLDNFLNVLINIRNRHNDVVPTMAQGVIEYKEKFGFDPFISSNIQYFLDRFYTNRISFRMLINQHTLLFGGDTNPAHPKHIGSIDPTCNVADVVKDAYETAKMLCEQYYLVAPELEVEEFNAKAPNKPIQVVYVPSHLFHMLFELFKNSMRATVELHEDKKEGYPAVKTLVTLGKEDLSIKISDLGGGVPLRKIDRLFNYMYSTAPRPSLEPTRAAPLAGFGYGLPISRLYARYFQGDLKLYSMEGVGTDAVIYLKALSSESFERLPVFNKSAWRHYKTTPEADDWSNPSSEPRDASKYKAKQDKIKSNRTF

[14] = molecular target: [Pyruvate dehydrogenase (acetyl-transferring)] kinase isozyme 4, mitochondrial (Mus musculus) (UniProt O70571); assay: Inhibition of PDK4 transcription in mouse 4T1 cells at 4 uM incubated for 24 hrs by qPCR analysis; type: cell-based
Chain of [Pyruvate dehydrogenase (acetyl-transferring)] kinase isozyme 4, mitochondrial (Mus musculus) (O70571 whole entry): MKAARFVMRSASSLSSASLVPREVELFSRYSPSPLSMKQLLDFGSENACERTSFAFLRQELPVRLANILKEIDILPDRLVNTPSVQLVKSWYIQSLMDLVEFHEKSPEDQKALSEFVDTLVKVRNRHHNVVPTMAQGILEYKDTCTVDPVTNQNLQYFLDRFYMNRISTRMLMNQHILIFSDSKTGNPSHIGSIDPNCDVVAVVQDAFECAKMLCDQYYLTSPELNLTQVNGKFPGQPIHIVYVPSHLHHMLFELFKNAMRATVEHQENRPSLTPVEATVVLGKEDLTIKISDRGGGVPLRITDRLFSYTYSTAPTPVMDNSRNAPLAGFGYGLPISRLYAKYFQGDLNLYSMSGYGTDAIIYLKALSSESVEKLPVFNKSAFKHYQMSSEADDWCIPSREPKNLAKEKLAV

[15] = tested on: 4T1; assay: Inhibition of PDK1 expression in mouse 4T1 cells at 4 uM incubated for 24 hrs by Western blot analysis; type: functional, cell-based
[16] = tested on: 4T1; assay: Inhibition of PDK4 expression in mouse 4T1 cells at 4 uM incubated for 24 hrs by Western blot analysis; type: functional, cell-based
[17] = tested on: 4T1; assay: Inhibition of glycolysis in mouse 4T1 cell lysates assessed as reduction in extracellular acidification rate at 2 uM measured after 6 hrs; type: functional, cell-based
[18] = tested on: Breast cancer cell line; assay: Antiproliferative activity against human Breast cancer cell line assessed as inhibition of cell viability measured after 72 hrs by MTT assay; type: functional, cell-based
[19] = tested on: 4T1; assay: Inhibition of glycolysis in mouse 4T1 cell lysates assessed as reduction in extracellular acidification rate at 20 mM measured after 6 hrs; type: functional, cell-based
[20] = Inhibition of PDK (unknown origin); set-up: species or system Homo sapiens

SMILES	IC50 [1] [µM]	IC50 [2] [µM]	IC50 [3] [µM]	IC50 [4] [µM]	IC50 [5] [µM]	IC50 at 24 h [6] [µM]	EC50 [7] [µM]	also measured
O=C(CCCCNC(=O)C(Cl)Cl)Nc1ccccc1[As]1SCCCS1	1.77	1.7	3.7	5.32	4.72	5.58	0.65	
O=C(CCCCCCCNC(=O)C(Cl)Cl)Nc1ccccc1[As]1SCCCS1	2.88	1.73	2.98	2.82	2.09	4.8	1.9	
O=S(=O)(c1ccc(O)cc1O)N1Cc2cc(O)cc(O)c2C1								EC50 [8]: 0.8 µM
O=C(O)C(Cl)Cl [DICHLOROACETIC ACID]	22000	20000	30000	35000	25000			IC50 [9]: 40000 µM
CN(C)C(=O)c1ccc(S(=O)(=O)c2ccc(NC(=O)[C@@](C)(O)C(F)(F)F)c(Cl)c2)cc1								EC50 [8]: 0.087 µM
O=C(CCCCCCCCCCCNC(=O)C(Cl)Cl)Nc1ccccc1[As]1SCCCS1	1.35	0.92	2.98	1.82	1.65	3	1.6	
O=C(CCCCC[P+](c1ccccc1)(c1ccccc1)c1ccccc1)NC(COC(=O)C(Cl)Cl)(COC(=O)C(Cl)Cl)COC(=O)C(Cl)Cl								IC50 [10]: 17 µM
O=C(CCCCCCNC(=O)C(Cl)Cl)Nc1ccccc1[As]1SCCCS1	1.98	1.63	2.65	2.94	1.95	8.07	1.2	
O=C(CCCCNC(=O)C(Cl)Cl)Nc1ccc([As]2SCCCS2)cc1	1.22	1.35	2.77	9.31	3.22	4.6	0.93	
O=C(Nc1ccc([As]2SCCCS2)cc1)C(Cl)Cl	0.91	0.96	0.98	1.79	0.69	3.74	4.7	inhibition [11]: inactive; inhibition [12]: inactive; inhibition [13]: inactive; inhibition [14]: inactive; inhibition [15]: inactive; inhibition [16]: inactive; inhibition [17]: inactive
CC1(C)CC[C@]2(C(=O)O)CC[C@]3(C)C(=CC[C@@H]4[C@@]5(C)CC[C@H](O[C@@H]6O[C@H](CO[C@@H]7OC[C@H](O)[C@H](O)[C@H]7O)[C@@H](O)[C@H](O)[C@H]6NC(=O)C(Cl)Cl)C(C)(C)[C@@H]5CC[C@]43C)[C@@H]2C1								IC50 [18]: 0.43 µM
O=C([O-])C(Cl)Cl.[Na+] [SODIUM DICHLOROACETATE]								EC50 [8]: 180 µM
O=C(CCCCCCCCCCCNC(=O)C(Cl)Cl)Nc1ccc([As]2SCCCS2)cc1	0.8	0.71	1.4	1.53	0.94	1.15	1.3	
COc1ccc(-c2c(-c3ccc(O)cc3O)n[nH]c2C)cc1								EC50 [8]: 648 µM
O=C(CCCCCCNC(=O)C(Cl)Cl)Nc1ccc([As]2SCCCS2)cc1	1.29	1.16	2.1	1.94	2.5	9.66	0.19	
O=C(CCCNC(=O)C(Cl)Cl)Nc1ccc([As]2SCCCS2)cc1	1.34	1.25	2.8	6.74	3.52	6.12	1	
O=C(O)C(Cl)Cl								inhibition [19]: inactive
O=C(CCCCCNC(=O)C(Cl)Cl)Nc1ccccc1[As]1SCCCS1	1.61	1.98	2.12	2.11	3.75	6.13	3.2	
C[C@@H]1CN(C(=O)[C@@](C)(O)C(F)(F)F)[C@@H](C)CN1C(=O)c1ccc(C#N)cc1								EC50 [20]: 0.016 µM
O=C(Nc1ccccc1[As]1SCCCS1)C(Cl)Cl	0.48	0.52	1.1	0.77	0.27	1.87	9.6	
C[C@@H]1C[C@H]2O[C@@H]2/C=C\C=C\C(=O)Cc2c(Cl)c(O)cc(O)c2C(=O)O1 [RADICICOL]								EC50 [8]: 1100 µM
O=C(CCNC(=O)C(Cl)Cl)Nc1ccccc1[As]1SCCCS1	1.68	1.61	3.23	3.56	2.54	5.23	2.6	
O=C(CCCNC(=O)C(Cl)Cl)Nc1ccccc1[As]1SCCCS1	1.97	2.1	332	2.85	3.34	6.06	2.9	
CC(C)c1ccc(COc2ccc(CC(=O)NCCN)cc2Cl)cc1								EC50 [20]: 2 µM
O=C(CCCCCCCNC(=O)C(Cl)Cl)Nc1ccc([As]2SCCCS2)cc1	1.24	1.09	1.73	1.9	1.89	9.62	0.62	
O=C(CCNC(=O)C(Cl)Cl)Nc1ccc([As]2SCCCS2)cc1	1.34	1.22	2.68	3.2	3.15	6.27	1.9	
